Active and inactive are the calls of the source. The rule behind the calls is not given here.
Columns and labels:
[1] = biological target: T1, L-lactate dehydrogenase A chain (Homo sapiens, UniProt P00338); assay: Inhibition of human LDH5 at 10 uM using pyruvate as substrate after 10 mins
[2] = biological target: T1, L-lactate dehydrogenase A chain; assay: Inhibition of LDH5 in human MG63 cells assessed as increase in oxygen consumption rate at 1 to 10 uM after 4 hrs; assay type: cell-based
[3] = biological target: T1, L-lactate dehydrogenase A chain; assay: Inhibition of human LDH5 using pyruvate as substrate after 10 mins
[4] = biological target: T1, L-lactate dehydrogenase A chain; assay: Inhibition of human LDH5 at 1 uM using pyruvate as substrate after 10 mins
[5] = tested on: MG-63; assay: Antiproliferative activity against human MG63 cells after 72 hrs by MTT assay; assay type: functional, cell-based; conditions: MG-63, 72 h
[6] = tested on: MG-63; assay: Antiproliferative activity against human MG63 cells at 10 uM after 72 hrs by MTT assay; assay type: functional, cell-based
[7] = biological target: T1, L-lactate dehydrogenase A chain; assay: Inhibition of LDH5 in human MG63 cells assessed as induction of ROS generation at 5 to 10 uM after 4 hrs by DCFH-DA staining-based fluorescence assay; assay type: cell-based
[8] = biological target: T1, L-lactate dehydrogenase A chain; assay: Inhibition of LDH5 in human MG63 cells assessed as decrease in extracellular acidification rate after 4 hrs; assay type: cell-based
[9] = biological target: T1, L-lactate dehydrogenase A chain; assay: Inhibition of LDH5 in human MG63 cells assessed as decrease in lactate formation after 4 hrs; assay type: cell-based
[10] = tested on: MG-63; assay: Antiproliferative activity in human MG63 cells at 4 uM after 24 to 72 hrs by IncuCyte zoom live cell imaging method; assay type: functional, cell-based
[11] = tested on: MG-63; assay: Antiproliferative activity against human MG63 cells at 4 uM after 72 hrs by MTT assay; assay type: functional, cell-based
[12] = biological target: T1, L-lactate dehydrogenase A chain; assay: Inhibition of LDH5 in human MG63 cells assessed as increase in oxygen consumption rate at 1 uM after 4 hrs; assay type: cell-based

| Compound | inhibition [1] | EC50 [3] [nM] | inhibition [4] | IC50 [5] [nM] | Activity [6] | Activity [11] | further results |
| --- | --- | --- | --- | --- | --- | --- | --- |
| COc1ccc([C@@H](NCc2c[nH]nc2-c2ccc(F)cc2)c2ccncc2)cc1 | inactive | – | – | – | – | – | – |
| COc1cccc(CN2CCCCC23CC3)c1OC[C@@H](O)CN1CCOCC1 | – | 390 | Active | 3180 | Active | – | Activity [2]: Active; Activity [7]: Active; inhibition [8]: Dose-dependent effect; inhibition [9]: Dose-dependent effect; Activity [10]: Active |
| Cc1cccc(OC[C@H](O)CN2CCN(CCN3C(=O)c4cccc5cccc(c45)C3=O)CC2)c1C | – | 670 | Active | – | Active | inactive | – |
| Cc1nc(C)c(CC(=O)N2CCN(CCOc3ccccc3)CC2)c(=O)[nH]1 | inactive | – | – | – | – | – | – |
| O=C(Cn1ccnc1-c1ccccc1)NC[C@@H]1COc2ccccc2O1 | – | – | – | – | Active | inactive | – |
| O=C1N[C@](c2ccc(N3CCOCC3)cc2)(c2ccsc2)CC(O)=C1Sc1ccccc1Cl | – | – | – | 660 | – | – | Activity [12]: Active |

Reference: ChEMBL document CHEMBL4118242, “Computer-aided discovery and biological characterization of human lactate dehydrogenase 5 inhibitors with anti-osteosarcoma activity” (Bioorg Med Chem Lett, 2018)
